Results reported in US8637504B2, “Sulfur-containing heterocyclic derivative having beta secretase inhibitory activity” (Shionogi & Co., Ltd., priority 2008, dated 2014).
Read-outs that look alike come from different tables or passages of the source.

Experiments:
[1] = target: Recombinant human BACE-1 (Homo sapiens (Human), UniProt P56817); test: Assay of β-secretase-inhibiting activity
[2] = target: T1, CYP3A4 (Homo sapiens (Human), UniProt P08684); test: CYP inhibition test (CYP3A4); assay type: in vitro ADME; settings: pooled human hepatic microsome, terfenedine hydroxylation
T1 sequence (P08684 whole entry): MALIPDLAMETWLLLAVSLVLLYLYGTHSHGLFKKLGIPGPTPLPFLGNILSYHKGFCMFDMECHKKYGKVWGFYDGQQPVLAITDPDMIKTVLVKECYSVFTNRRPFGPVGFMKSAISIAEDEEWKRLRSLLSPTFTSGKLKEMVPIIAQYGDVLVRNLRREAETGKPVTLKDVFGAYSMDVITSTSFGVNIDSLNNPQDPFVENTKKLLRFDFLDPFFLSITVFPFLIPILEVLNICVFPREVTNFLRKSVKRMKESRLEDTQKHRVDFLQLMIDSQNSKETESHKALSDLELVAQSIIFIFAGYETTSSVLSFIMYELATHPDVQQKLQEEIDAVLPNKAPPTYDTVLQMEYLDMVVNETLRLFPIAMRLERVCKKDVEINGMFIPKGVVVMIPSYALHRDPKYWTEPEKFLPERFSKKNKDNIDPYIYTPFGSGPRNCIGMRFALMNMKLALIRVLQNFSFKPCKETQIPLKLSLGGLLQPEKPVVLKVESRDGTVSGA
Protocol: (§1) After the centrifugation at 3000 rpm for 15 minutes, resorufin (CYP1A2 metabolite) in the supernatant was quantified by a fluorescent multilabel counter and tributamide hydroxide (CYP2CP metabolite), mephenyloin 4′ hydroxide (CYP2C19 metabolite), […] (CYP2D6 metabolite), and terfenadine alcohol (CYP3A4 metabolite) were quantified by LC/MS/MS. Addition of only DMSO being a solvent dissolving a drug to a reaction system was adopted as a control (100%), remaining activity (%) was calculated at each concentration of a test drug added as the solution and […] was calculated by reverse presumption by a logistic model using a concentration and an inhibition rate.

[3] = target: CYP2D6 (Homo sapiens (Human), UniProt P10635); test: CYP inhibition test (CYP2D6); assay type: in vitro ADME; settings: pooled human hepatic microsome, dextromethorphan O-demethylation
Chain of CYP2D6 (P10635 whole entry): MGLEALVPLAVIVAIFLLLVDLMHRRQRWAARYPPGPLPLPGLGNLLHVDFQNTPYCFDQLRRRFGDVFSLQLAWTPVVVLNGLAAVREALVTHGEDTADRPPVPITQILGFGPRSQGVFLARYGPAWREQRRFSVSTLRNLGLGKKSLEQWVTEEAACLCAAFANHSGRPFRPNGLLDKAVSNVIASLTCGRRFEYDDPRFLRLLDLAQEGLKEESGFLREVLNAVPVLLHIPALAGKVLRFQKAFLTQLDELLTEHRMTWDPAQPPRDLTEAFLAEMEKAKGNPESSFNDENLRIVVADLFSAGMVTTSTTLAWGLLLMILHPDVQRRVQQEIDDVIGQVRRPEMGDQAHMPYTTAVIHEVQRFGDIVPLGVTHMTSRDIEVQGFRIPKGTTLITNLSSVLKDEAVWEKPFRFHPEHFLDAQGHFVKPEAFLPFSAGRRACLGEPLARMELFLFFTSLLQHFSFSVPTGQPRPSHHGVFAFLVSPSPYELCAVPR
Protocol: as §1

[4] = target: CYP1A2 (Homo sapiens (Human), UniProt P05177); test: CYP inhibition test (CYP1A2); assay type: in vitro ADME; settings: pooled human hepatic microsome, 7-ethoxyresorufin O-deethylation
Chain of CYP1A2 (P05177 whole entry): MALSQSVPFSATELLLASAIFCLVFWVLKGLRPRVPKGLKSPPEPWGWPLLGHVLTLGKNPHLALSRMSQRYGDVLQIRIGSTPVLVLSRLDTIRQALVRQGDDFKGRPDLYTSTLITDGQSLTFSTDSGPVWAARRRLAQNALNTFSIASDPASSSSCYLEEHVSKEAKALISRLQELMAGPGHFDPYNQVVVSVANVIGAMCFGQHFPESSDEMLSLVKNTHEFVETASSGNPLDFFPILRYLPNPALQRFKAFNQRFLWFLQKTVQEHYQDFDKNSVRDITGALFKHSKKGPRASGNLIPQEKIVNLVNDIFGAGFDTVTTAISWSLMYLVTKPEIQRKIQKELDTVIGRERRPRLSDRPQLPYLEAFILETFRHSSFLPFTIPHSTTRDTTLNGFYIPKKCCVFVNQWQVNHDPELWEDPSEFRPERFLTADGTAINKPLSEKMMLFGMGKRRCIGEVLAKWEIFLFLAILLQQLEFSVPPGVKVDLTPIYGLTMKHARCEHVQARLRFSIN
Protocol: as §1

[5] = target: CYP2C19 (Homo sapiens (Human), UniProt P33261); test: CYP inhibition test (CYP2C19); assay type: in vitro ADME; settings: pooled human hepatic microsome, mephenyloin 4′-hydroxylation
Chain of CYP2C19 (P33261 whole entry): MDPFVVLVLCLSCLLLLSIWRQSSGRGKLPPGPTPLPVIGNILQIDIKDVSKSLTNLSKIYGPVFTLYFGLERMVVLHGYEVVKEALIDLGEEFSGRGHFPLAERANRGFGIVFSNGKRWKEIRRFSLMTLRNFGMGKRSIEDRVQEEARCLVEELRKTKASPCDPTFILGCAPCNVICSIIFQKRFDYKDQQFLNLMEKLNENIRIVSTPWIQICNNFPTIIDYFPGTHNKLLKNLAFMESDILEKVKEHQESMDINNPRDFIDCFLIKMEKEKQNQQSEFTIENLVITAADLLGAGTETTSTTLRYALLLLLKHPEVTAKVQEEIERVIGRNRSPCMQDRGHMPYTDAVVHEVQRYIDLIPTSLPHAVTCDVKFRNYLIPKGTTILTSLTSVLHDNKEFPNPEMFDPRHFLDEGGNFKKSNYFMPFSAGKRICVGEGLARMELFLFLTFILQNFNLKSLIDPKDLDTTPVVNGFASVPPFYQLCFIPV
Protocol: as §1

[6] = target: CYP2C9 (Homo sapiens (Human), UniProt P11712); test: CYP inhibition test (CYP2C9); assay type: in vitro ADME; settings: pooled human hepatic microsome, tolbutamide methyl-hydroxylation
Chain of CYP2C9 (P11712 whole entry): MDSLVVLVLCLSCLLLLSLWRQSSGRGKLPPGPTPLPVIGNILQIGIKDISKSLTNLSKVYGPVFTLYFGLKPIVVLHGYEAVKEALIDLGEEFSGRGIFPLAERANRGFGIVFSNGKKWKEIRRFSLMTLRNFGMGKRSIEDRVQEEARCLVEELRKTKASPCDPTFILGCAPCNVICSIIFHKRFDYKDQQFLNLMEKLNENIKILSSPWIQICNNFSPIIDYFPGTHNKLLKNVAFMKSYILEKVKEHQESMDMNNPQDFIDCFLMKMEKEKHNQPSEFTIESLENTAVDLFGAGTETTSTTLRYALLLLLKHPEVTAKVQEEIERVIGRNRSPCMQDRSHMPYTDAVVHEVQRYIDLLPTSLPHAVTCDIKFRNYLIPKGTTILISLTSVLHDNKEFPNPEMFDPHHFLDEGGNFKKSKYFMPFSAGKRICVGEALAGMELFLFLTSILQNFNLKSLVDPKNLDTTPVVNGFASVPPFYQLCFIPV
Protocol: as §1

[7] = Metabolism stability test; assay type: in vitro ADME; settings: human liver microsomes 0.5 mg protein/mL, NADPH, 37° C., 30 minutes
Protocol: Using a commercially available pooled human hepatic microsomes, a test compound was reacted for a constant time, a remaining rate was calculated by comparing a reacted sample and an unreacted sample, thereby, a degree of metabolism in liver was assessed.
A reaction was performed (oxidative reaction) at 37° C. for 0 minute or 30 minutes in the presence of 1 mmol/L NADPH in 0.2 mL of a buffer (50 mmol/L Tris-HCl pH 7.4, 150 mmol/L potassium chloride, 10 mmol/L magnesium chloride) containing 0.5 mg protein/mL of human liver microsomes. After the reaction, 50 μl, of the reaction solution was added to 100 μL of a methanol/acetonitrile=1/1 (v/v), mixed and centrifuged at 3000 rpm for 15 minutes. The test compound in the supernatant was quantified by LC/MS/MS, and a remaining amount of the test compound after the reaction was calculated, letting a compound amount at 0 minute reaction time to be 100%.

[8] = Solubility test; assay type: physicochemical; settings: pH 1.2, simulated gastric fluid, kinetic from dmso stock; JP-I medium, turbidity after 4 hours
Protocol: A 2-fold dilution series (12 points) of a 10 mM solution of a test compound in DMSO was added to a medium (JP-I, JP-II) (2%), and solubility was assessed by 3 stages (High; >40 Medium; 3-40 μM, Low; <3 μM) from a turbidity after 4 hours (crystallization information).

[9] = target: human ether-a-go-go related gene (hERG) channel (Homo sapiens (Human), UniProt Q12809); test: hERG test; assay type: cell-based; settings: HEK293 cells expressing hERG, patch clamp, applied 10 minutes
Chain of human ether-a-go-go related gene (hERG) channel (Q12809 whole entry): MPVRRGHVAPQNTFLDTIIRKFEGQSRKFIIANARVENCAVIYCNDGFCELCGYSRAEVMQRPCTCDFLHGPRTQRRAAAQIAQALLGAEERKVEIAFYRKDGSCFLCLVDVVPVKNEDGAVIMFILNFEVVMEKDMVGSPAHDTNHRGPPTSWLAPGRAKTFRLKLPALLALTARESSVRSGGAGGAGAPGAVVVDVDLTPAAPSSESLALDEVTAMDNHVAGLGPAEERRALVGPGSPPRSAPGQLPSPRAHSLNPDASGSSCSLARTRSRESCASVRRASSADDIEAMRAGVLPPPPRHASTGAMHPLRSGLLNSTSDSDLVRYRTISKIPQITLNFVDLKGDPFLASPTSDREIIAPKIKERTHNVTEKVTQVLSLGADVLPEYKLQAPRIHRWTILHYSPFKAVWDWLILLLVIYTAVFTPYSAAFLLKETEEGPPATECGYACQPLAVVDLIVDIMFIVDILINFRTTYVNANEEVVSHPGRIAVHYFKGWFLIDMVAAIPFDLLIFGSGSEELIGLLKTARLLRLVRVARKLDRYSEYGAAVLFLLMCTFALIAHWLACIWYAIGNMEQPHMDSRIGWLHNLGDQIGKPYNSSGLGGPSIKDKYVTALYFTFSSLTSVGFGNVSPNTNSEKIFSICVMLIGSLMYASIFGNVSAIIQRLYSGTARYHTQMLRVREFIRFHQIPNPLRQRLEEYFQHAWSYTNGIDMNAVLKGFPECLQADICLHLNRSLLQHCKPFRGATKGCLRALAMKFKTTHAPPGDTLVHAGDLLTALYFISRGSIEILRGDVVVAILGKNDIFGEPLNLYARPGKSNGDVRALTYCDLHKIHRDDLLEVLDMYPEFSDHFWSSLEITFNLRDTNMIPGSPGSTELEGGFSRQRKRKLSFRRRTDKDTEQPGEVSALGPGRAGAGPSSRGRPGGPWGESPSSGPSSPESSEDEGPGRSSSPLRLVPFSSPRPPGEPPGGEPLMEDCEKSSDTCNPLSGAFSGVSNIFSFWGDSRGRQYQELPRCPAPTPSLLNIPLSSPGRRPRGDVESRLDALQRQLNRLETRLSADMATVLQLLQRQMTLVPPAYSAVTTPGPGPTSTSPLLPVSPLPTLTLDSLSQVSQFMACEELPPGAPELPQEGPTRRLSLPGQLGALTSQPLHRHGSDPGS
From the text: For the purpose of assessing risk of an electrocardiogram QT interval prolongation, effects on delayed rectifier K+ current (IKr), which plays an important role in the ventricular repolarization process, was studied using HEK293 cells expressing human ether-a-go-go related gene (hERG) channel.
After a cell was retained at a membrane potential of −80 mV by whole cell patch clamp method using an automated patch clamp system (PatchXpress 7000A, Axon Instruments Inc.), IKr induced by depolarization pulse stimulation at +50 mV for 2 seconds and, further, repolarization pulse stimulation at −50 mV for 2 seconds was recorded. […] From the recording IKr, an absolute value of the tail peak current was measured based on the current value at the resting membrane potential using an analysis software (DataXpress ver.1, Molecular Devices Corporation). Further, the % inhibition relative to the tail peak current before application of the test substance was calculated, and compared with the vehicle-applied group (0.1% dimethyl sulfoxide solution) to assess influence of the test substance on IKr.

[10] = target: T1, CYP3A4; test: CYP3A4 fluorescent MBI test; assay type: in vitro ADME; settings: pre-reaction time 0 or 30 minutes, substrate 7-BFC
Protocol: The CYP3A4 fluorescent MBI test is a test of investigating enhancement of CYP3A4 inhibition of a compound by a metabolism reaction, and the test was performed using, as CYP3A4 enzyme expressed in Escherichia coli and employing, as an index, a reaction in which 7-benzyloxytrifluoromethylchmarin (7-BFC) is debenzylated by the CYP3A4 enzyme to produce a metabolite, 7-hydroxytrifluoromethylchmarin (HFC) emitting fluorescent light.
The reaction conditions were as follows: substrate, 5.6 μmol/L 7-BFC; pre-reaction time, 0 or 30 minutes; reaction time, 15 minutes; reaction temperature, 25° C. […]
An enzyme in a K-Pi buffer (pH 7.4) and a test drug solution as a pre-reaction solution were added to a 96-well plate at the composition of the pre-reaction, a part of it was transferred to another 96-well plate so that it was 1/10 diluted by a substrate in a K-Pi buffer, NADPH as a co-factor was added to initiate a reaction as an index (without preincubation) and, after a predetermined time of a reaction, acetonitrile/0.5 mol/L Tris (trishydroxyaminomethane)=4/1 was added to stop the reaction. […] For the plate on which each index reaction had been performed, a fluorescent value of 7-HFC which is a metabolite was measured with a fluorescent plate reader. […]

[11] = Recombinant human BACE-1 7.4 nM, substrate peptide 18 nM, pH 5.0, 30° C. 3 hours

Chain of Recombinant human BACE-1 (P56817 46-501): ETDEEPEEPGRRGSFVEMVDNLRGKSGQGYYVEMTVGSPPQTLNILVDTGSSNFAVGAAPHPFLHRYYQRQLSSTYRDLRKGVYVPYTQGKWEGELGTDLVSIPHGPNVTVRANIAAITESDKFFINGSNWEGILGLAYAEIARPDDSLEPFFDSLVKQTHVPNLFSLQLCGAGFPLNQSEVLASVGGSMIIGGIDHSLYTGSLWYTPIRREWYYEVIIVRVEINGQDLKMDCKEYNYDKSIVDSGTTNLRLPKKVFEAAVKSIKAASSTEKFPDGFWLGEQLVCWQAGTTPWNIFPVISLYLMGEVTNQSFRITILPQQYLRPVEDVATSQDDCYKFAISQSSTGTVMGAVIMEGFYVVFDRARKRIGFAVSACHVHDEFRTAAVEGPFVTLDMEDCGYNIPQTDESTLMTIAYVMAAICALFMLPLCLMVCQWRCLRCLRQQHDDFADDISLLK

| Structure (SMILES) | IC50 [1, 11] | IC50 [2] | IC50 [3] | IC50 [4] | IC50 [5] | IC50 [6] | remaining amount of the test compound after the reaction [7] | other results |
| --- | --- | --- | --- | --- | --- | --- | --- | --- |
| Cc1cc(C(=O)Nc2ccc(F)c([C@]3(C)C=CSC(N)=N3)c2)n(C)n1 [Compound 35] | 0.096 µM | > 20 µM | > 20 µM | > 20 µM | > 20 µM | > 20 µM |  |  |
| C[C@@]1(c2cc(NC(=O)c3cnc(-c4ncco4)cn3)ccc2F)C=CSC(N)=N1 [Compound 38] | 0.304 µM |  |  |  |  |  | 95% |  |
| C[C@@]1(c2cc(NC(=O)c3cc4n(n3)CCN4)ccc2F)C=CSC(N)=N1 [Compound 63] | 0.435 µM | > 20 µM | > 20 µM | > 20 µM | > 20 µM | > 20 µM |  |  |
| CC(C)(C)S(=O)(=O)Nc1cnc(C(=O)Nc2ccc(F)c([C@]3(C)C=CSC(N)=N3)c2)cn1 [Compound 68] |  | > 20 µM | > 20 µM | > 20 µM | > 20 µM | > 20 µM |  |  |
| C[C@@]1(c2cc(NC(=O)c3cnc(-n4cncn4)cn3)ccc2F)C=CSC(N)=N1 [Compound 70] | 0.036 µM |  |  |  |  |  | 94% | solubility at 4 h [8]: > 40 µM |
| CNC(=O)c1ccc(-c2ccc(F)c([C@]3(C)C=CSC(N)=N3)c2)cn1 [Compound 92] |  |  |  |  |  |  |  | % inhibition of tail peak current (IKr) [9]: 7.9% |
| C=C1C[C@@](C)(c2cc(NC(=O)c3cnc(OC)cn3)cnc2Cl)N=C(N)S1 [Compound 99] | 0.014 µM |  |  |  |  |  |  | IC50 difference (with/without preincubation) [10]: < 3 µM |
| C=C1C[C@@](C)(c2cc(NC(=O)c3cnc(OC)cn3)cnc2C)N=C(N)S1 [Compound 102] | 0.036 µM |  |  |  |  |  |  | % inhibition of tail peak current (IKr) [9]: 2.3% |
| C=C1C[C@@](C)(c2cncc(NC(=O)c3cnc(OC)cn3)c2)N=C(N)S1 [Compound 104] | 0.063 µM | > 20 µM | > 20 µM | > 20 µM | > 20 µM | > 20 µM |  |  |
| C=C1C[C@@](C)(c2cncc(NC(=O)c3ncc(C(F)(F)F)cc3Cl)c2)N=C(N)S1 [Compound 106] | 0.102 µM | > 20 µM | > 20 µM | > 20 µM | > 20 µM | > 20 µM |  |  |
| CC1=C[C@@](C)(c2cncc(NC(=O)c3ccc(C#N)cn3)c2)N=C(N)S1 [Compound 108] |  |  |  |  |  |  |  | IC50 [1]: ≤ 1 µM; IC50 difference (with/without preincubation) [10]: < 3 µM |
| C[C@@]1(c2cccc(-c3cncc(C#N)c3)c2)CCSC(N)=N1 [Compound 212] |  |  |  |  |  |  | 95% |  |
| C[C@@]1(c2cccc(-c3ccc(F)nc3F)c2)CCSC(N)=N1 [Compound 213] |  |  |  |  |  |  | 98% |  |
